Assay results published in patent publication US20180235213A1, “PLANT HORMONE APPLICATION” (The State of Israel Ministry of Agriculture & Rural …, priority 2015, published 2018).

What was measured:
Picual olives = assay: Application of strigolactone analogs by irrigation to olive seedlings; assay type: in vivo, Olea europaea L.; settings: irrigation to roots twice a week for 6 weeks, 0.03 and 0.3 μM, vs control
Protocol: The effect of application of various analogues of strigolactone (SL) on olives, given to roots by irrigation was examined. Three different SL analogs; […] The seedlings were rooted from cuttings and hardened, and were about 6 months old at the time of the experiment. Growth soil mixture was used as in the nursery. Each strigolactone analog was dissolved in acetone to give a 5.6 mM solution. This solution was then further diluted with distilled water to 0.03 and 0.3 μM. The diluted solution was injected to the roots twice a week for 6 weeks, and subsequently all the growing buds were counted. For each treatment (treated and control groups) 10 plants were measured. Experiments were repeated three times.

[1] = test system: Orobanche aegyptiaca seeds; assay: Orobanche Germination Assay (biological activity after stress treatments); assay type: in vivo; settings: with vs without HPC
Protocol: The implementation of the strigolactone analogs necessitates a degree of material stability, to ensure their activity on the plant under various growth conditions. Accordingly, the stability of the strigolactone analog GR24 was tested under different environmental conditions. GR24 in acetone stock solution of 5.6 mM was diluted in double distilled water (DDW) or HPC pre-made gel to a concentration of 0.56 μM in eppendorf tubes and was subjected to the following treatments:
GR24 solutions of 0.56 μM, diluted either in DDW or in HPC pre-made gel in eppendorf tubes were incubated in a dry block heater at temperatures of 4° C., 20° C., 40° C., 60° C. digitally set for periods of 3 h, 1 d, 2 d, 4 d, 5 d and 7 d under ambient light.
GR24 solutions of 0.56 μM, diluted either in DDW or in HPC pre-made gel, each in quartz tubes (15 replicates for each treatment) were exposed to UV radiation of λ=312 nm under UV lamp of 600 or 857 μE intensity for periods of 15 min, 30 min or 18 h.
Biological activity was determined by Orobanche Germination Assay: Approximately 30 to 50 seeds of Orobanche aegyptiaca were spread on a glass fiber filter paper disk (9-mm diameter) and put into sterile petri dishes (9-cm diameter) lined with Whatman filter paper wetted with 3 mL of demineralized water. Petri dishes were sealed with parafilm and incubated at 27° C. for preconditioning. After one week of preconditioning period, the glass fiber filter paper disks with Orobanche seeds were removed from the petri dish and dried for 20 min to remove surplus moisture. The disks were transferred to another petri dish within a filter paper ring (outer diameter of 9 cm; inner diameter of 8 cm) wetted with 0.9 mL of water, which maintained a moist environment during the germination bioassay. Forty microliters of the GR24 test solutions were added to the disks. Untreated GR24 at a 0.56 μM concentration was used as a positive control, water or HPC pre-made gel as negative controls. Germination percent was calculated using the counter cell analysis of the IMAGEJ (http://www.//rsbweb.nih.gov/ij/) software. Germinated seeds were distinguished from non-germinated seeds according to the seedling radicles, which are a few millimeters long and visible under a stereomicroscope (Leica MZFLIII, Leica Microsystems, GmbH).
For each of the GR24 treatments fifteen replicates with 30-40 seeds were tested per treatment with 40 μl of 0.56 μM GR24 test solutions pre-treated as described above. The experiment was repeated three times (n=450 seeds).
Next, GR24 was stabilized with Hydroxypropyl Cellulose (HPC), which is a […] medium. Granular HPC [Sigma-Aldrich Israel Ltd., CAS-No. 9004-64-2] […]

Hypericum plants = assay: EGO10 collar and granules application to Hypericum plants; assay type: in vivo, Hypericum calycinum or Hypericum perforatum
Protocol: EGO10 (25 and 50 μM) with HPC+glycerin were applied in rigid tubes, as described above (Example 13) to Hypericum calycinum or Hypericum perforatum (Ivory Spices of Danziger, result of breeding for ornamental). Two replicates on experiments were done in the greenhouse. EGO10 was applied at the indicated concentrations as a collar. Also, EGO10 was applied in another, new way of application—as granules of slow release of 3×10^−8 M—that were applied in the soil, close to the root zone. […] An example to the results of the collar treatment is in FIG. 27.

Pomegranate = assay: EGO10 collar application to pomegranate in commercial nursery; assay type: in vivo, Punica granatum; settings: 50 μM as collar in Eppendorf tubes
Protocol: (§1) Two replicates on experiments were performed in commercial nursery.

Almond = assay: EGO10 granules and collar application to almond in commercial nursery; assay type: in vivo, Prunus dulcis
Protocol: as §1

[2] = test system: Tomato (Shirez, Ikram cultivars); assay: EGO10 collar, irrigation and granules application to greenhouse tomato; assay type: in vivo, Solanum lycopersicum; settings: for side branches: collar of 500 μM; for side branch weight: collars 25 and 50 μM
Text: Greenhouse tomato (Shirez, Ikram and other cultivars) are one of the crops that necessitate vast investment in the constant trimming of side branches. Hand labor is needed for this trimming, on an everyday basis, to avoid significant yield loses. The constant trimming is a cause for infection at trimming sites. […] For these experiments two cultivars of greenhouse tomato were used, Ikram and Shirez, both vigorously producing side branches that should be trimmed under commercial growth conditions.
Also, treatments that include irrigation with 3×10^−6 M (once a week for 6 weeks, 5 ml) and granules application (controlled release at that same concentration of 3×10^−6 M) were applied. Each treatment consisted of 20 plants, blocks of 4 plants were randomly distributed in the greenhouse.
Following, and to increase the possible effect of EGO10 on tomato branching, additional experiment was performed with tomato plants were treated with collar of 500 μM EGO10.

Tomato (Ikram cultivar) = assay: EGO10 collar combined with auxin spray on tomato; assay type: in vivo, Solanum lycopersicum
Protocol: The effect of EGO 10 combined with auxin was tested. […] Collar was applied 50 μM of EGO10 (FIG. 32) with a auxin daily spray (IAA) 5 ppm on the shoot tip. Also treatment with only the 50 μM collar of EGO10, an IAA treatment with no collar as a control for the auxin treatment and a control with no treatment were applied. Each treatment consisted of 10-12 plants, blocks of 4 plants were randomly distributed in the greenhouse.

CC1=C[C@H](O/C=C2\Cc3c(n(C)c4ccccc34)C2=O)OC1=O [EGO10]
number of growing buds / lateral branches (Picual olives): repressing effect on axillary branch growth similar to that of GR24
Orobanche germination % with HPC at 60° C. ([1]; 60° C., 0 and 24 hours): increased biological activity
Orobanche germination % with HPC at different pH ([1]; basic and acidic pH (pH 4, pH 7, pH 10)): increased biological activity
no. of axillary branches (Hypericum plants; 50 μM as collar in Eppendorf tubes, not significantly different): marked reduction in the no. of axillary branches
no. of axillary branches (Hypericum plants; granules of slow release of 3×10^−8 M in the soil): did not result with substantial changes in the no. of axillary branches
number of axillary branches (Pomegranate): marked and significant reduction in the number of axillary branches
number of axillary branches (Almond; 3×10^−8 M as granules of controlled release): marked and significant reduction in the number of axillary branches
number of axillary branches (Almond; both granules and collar): reduced the inhibitory effect of the granules on side branches
yield determined as number of fruit ([2]; Ikram, EGO10 treated plants): increased
side branches ([2]; Ikram): significant reduction in side branches
side branch weight ([2]; Ikram): reduced to some extent branching
side branches ([2]; Shirez): did not respond
side branch weight ([2]; Shirez, irrigation, granules): did not change significantly branching
bud outgrowth above the collar (Tomato (Ikram cultivar); 50 μM collar only): more moderate and not consistent respond
bud outgrowth above the collar (Tomato (Ikram cultivar); 50 μM collar with auxin (IAA) daily spray 5 ppm): clear inhibition of bud outgrowth
